In PubChem BioAssay AID2060501 (Molecular Pharmacology Branch, DTP, NCI, 2025):

Tested on: 282377-053-R-J1-PDC complex spheroids, viability
Experiment: Anticancer human tumor 282377-053-R-J1-PDC patient-derived colon adenocarcinoma cell line growth inhibition [GQUAD]
Details: for IC50: curve of first compound; for viability, T/C: stronger effect = lower value
In short: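 Multi-cell-type spheroids of tumor cells with HUVEC and mesenchymal stem cells, treated with drug combinations. Concentrations descend in half-log steps from near clinical Cmax, or from 10 microM where Cmax is unknown; viability read-out.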

[1] = second compound 0.0316 µM, first compound 0.0316 µM
[2] = second compound 0.0316 µM, first compound 0.1 µM
[3] = second compound 0.0316 µM, first compound 0.316 µM
[4] = second compound 0.0316 µM, first compound 1 µM
[5] = second compound 0.0316 µM, first compound 3.16 µM
[6] = second compound 0.0316 µM, first compound 10 µM
[7] = second compound 0.1 µM, first compound 0.0316 µM
[8] = second compound 0.1 µM, first compound 0.1 µM
[9] = second compound 0.1 µM, first compound 0.316 µM
[10] = second compound 0.1 µM, first compound 1 µM
[11] = second compound 0.1 µM, first compound 3.16 µM
[12] = second compound 0.1 µM, first compound 10 µM
[13] = second compound 0.316 µM, first compound 0.0316 µM
[14] = second compound 0.316 µM, first compound 0.1 µM
[15] = second compound 0.316 µM, first compound 0.316 µM
[16] = second compound 0.316 µM, first compound 1 µM
[17] = second compound 0.316 µM, first compound 3.16 µM
[18] = second compound 0.316 µM, first compound 10 µM
[19] = second compound 1 µM, first compound 0.0316 µM
[20] = second compound 1 µM, first compound 0.1 µM
[21] = second compound 1 µM, first compound 0.316 µM
[22] = second compound 1 µM, first compound 1 µM
[23] = second compound 1 µM, first compound 3.16 µM
[24] = second compound 1 µM, first compound 10 µM
[25] = second compound 3.16 µM, first compound 0.0316 µM
[26] = second compound 3.16 µM, first compound 0.1 µM
[27] = second compound 3.16 µM, first compound 0.316 µM
[28] = second compound 3.16 µM, first compound 1 µM
[29] = second compound 3.16 µM, first compound 3.16 µM
[30] = second compound 3.16 µM, first compound 10 µM
[31] = second compound 10 µM, first compound 0.0316 µM
[32] = second compound 10 µM, first compound 0.1 µM
[33] = second compound 10 µM, first compound 0.316 µM
[34] = second compound 10 µM, first compound 1 µM
[35] = second compound 10 µM, first compound 3.16 µM
[36] = second compound 10 µM, first compound 10 µM
[37] = second compound 0.0316 µM, first compound 0.000999 µM
[38] = second compound 0.0316 µM, first compound 0.00316 µM
[39] = second compound 0.0316 µM, first compound 0.00999 µM
[40] = second compound 0.0316 µM, first compound 0.0999 µM
[41] = second compound 0.1 µM, first compound 0.000999 µM
[42] = second compound 0.1 µM, first compound 0.00316 µM
[43] = second compound 0.1 µM, first compound 0.00999 µM
[44] = second compound 0.1 µM, first compound 0.0999 µM
[45] = second compound 0.316 µM, first compound 0.000999 µM
[46] = second compound 0.316 µM, first compound 0.00316 µM
[47] = second compound 0.316 µM, first compound 0.00999 µM
[48] = second compound 0.316 µM, first compound 0.0999 µM
[49] = second compound 1 µM, first compound 0.000999 µM
[50] = second compound 1 µM, first compound 0.00316 µM
[51] = second compound 1 µM, first compound 0.00999 µM
[52] = second compound 1 µM, first compound 0.0999 µM
[53] = second compound 3.16 µM, first compound 0.000999 µM
[54] = second compound 3.16 µM, first compound 0.00316 µM
[55] = second compound 3.16 µM, first compound 0.00999 µM
[56] = second compound 3.16 µM, first compound 0.0999 µM
[57] = second compound 10 µM, first compound 0.000999 µM
[58] = second compound 10 µM, first compound 0.00316 µM
[59] = second compound 10 µM, first compound 0.00999 µM
[60] = second compound 10 µM, first compound 0.0999 µM
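Note: spheroids exposed to compounds for 7 days before readout.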
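Throughout, for viability, T/C: percent of vehicle DMSO control viability with 100% = untreated-like growth.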

Structure (SMILES): C=CC(=O)N1CCN(c2nc(=O)n(-c3c(C)ccnc3C(C)C)c3nc(-c4c(O)cccc4F)c(F)cc23)C(C)C1 (stereo not drawn) + Cc1[nH]c2ccc(F)cc2c1-c1nc2c3cccnc3c3ncccc3c2[nH]1
- IC50 (second compound 0.0316 µM): > 10000 nM
- IC50 (second compound 0.1 µM): > 10000 nM
- IC50 (second compound 0.316 µM): > 10000 nM
- IC50 (second compound 1 µM): > 10000 nM
- IC50 (second compound 3.16 µM): 9670 nM
- IC50 (second compound 10 µM): < 31.6 nM
- viability, T/C [1]: 106%
- viability, T/C [2]: 102%
- viability, T/C [3]: 125%
- viability, T/C [4]: 108%
- viability, T/C [5]: 126%
- viability, T/C [6]: 80.9%
- viability, T/C [7]: 122%
- viability, T/C [8]: 110%
- viability, T/C [9]: 98.9%
- viability, T/C [10]: 100%
- viability, T/C [11]: 100%
- viability, T/C [12]: 89.9%
- viability, T/C [13]: 109%
- viability, T/C [14]: 110%
- viability, T/C [15]: 87.1%
- viability, T/C [16]: 122%
- viability, T/C [17]: 105%
- viability, T/C [18]: 99.8%
- viability, T/C [19]: 114%
- viability, T/C [20]: 98.1%
- viability, T/C [21]: 103%
- viability, T/C [22]: 106%
- viability, T/C [23]: 119%
- viability, T/C [24]: 103%
- viability, T/C [25]: 82.1%
- viability, T/C [26]: 108%
- viability, T/C [27]: 71.5%
- viability, T/C [28]: 75.9%
- viability, T/C [29]: 98.4%
- viability, T/C [30]: 48.8%
- viability, T/C [31]: 28.3%
- viability, T/C [32]: 32%
- viability, T/C [33]: 37.6%
- viability, T/C [34]: 40%
- viability, T/C [35]: 31%
- viability, T/C [36]: 27.2%

Structure (SMILES): CCc1c2c(nc3ccc(O)cc13)-c1cc3c(c(=O)n1C2)COC(=O)[C@]3(O)CC + Cc1[nH]c2ccc(F)cc2c1-c1nc2c3cccnc3c3ncccc3c2[nH]1
- IC50 (second compound 0.0316 µM): 27.8 nM
- IC50 (second compound 0.1 µM): 26.7 nM
- IC50 (second compound 0.316 µM): 35.2 nM
- IC50 (second compound 1 µM): 20.5 nM
- IC50 (second compound 3.16 µM): 3.28 nM
- IC50 (second compound 10 µM): < 0.999 nM
- viability, T/C [37]: 125%
- viability, T/C [38]: 79.7%
- viability, T/C [39]: 65.6%
- viability, T/C [1]: 54.4%
- viability, T/C [40]: 37.9%
- viability, T/C [3]: 29.4%
- viability, T/C [41]: 112%
- viability, T/C [42]: 99.3%
- viability, T/C [43]: 64%
- viability, T/C [7]: 49.8%
- viability, T/C [44]: 34.2%
- viability, T/C [9]: 25.5%
- viability, T/C [45]: 107%
- viability, T/C [46]: 83.3%
- viability, T/C [47]: 64.4%
- viability, T/C [13]: 47.9%
- viability, T/C [48]: 46.8%
- viability, T/C [15]: 26.9%
- viability, T/C [49]: 87.2%
- viability, T/C [50]: 77.6%
- viability, T/C [51]: 52.6%
- viability, T/C [19]: 47%
- viability, T/C [52]: 36.6%
- viability, T/C [21]: 25.9%
- viability, T/C [53]: 71.5%
- viability, T/C [54]: 51%
- viability, T/C [55]: 33.4%
- viability, T/C [25]: 25.9%
- viability, T/C [56]: 17.1%
- viability, T/C [27]: 11.8%
- viability, T/C [57]: 21.1%
- viability, T/C [58]: 29.2%
- viability, T/C [59]: 12.5%
- viability, T/C [31]: 8.86%
- viability, T/C [60]: 9.45%
- viability, T/C [33]: 8.4%

Structure (SMILES): Cc1cccc(N(C)C(=O)C2C(O)CCN2c2nc(C)cc(C(F)(F)F)c2C#N)c1 (stereo not drawn) + Cc1[nH]c2ccc(F)cc2c1-c1nc2c3cccnc3c3ncccc3c2[nH]1
- IC50 (second compound 0.0316 µM): > 10000 nM
- IC50 (second compound 0.1 µM): > 10000 nM
- IC50 (second compound 0.316 µM): > 10000 nM
- IC50 (second compound 1 µM): > 10000 nM
- IC50 (second compound 3.16 µM): > 10000 nM
- IC50 (second compound 10 µM): 567 nM
- viability, T/C [1]: 89.3%
- viability, T/C [2]: 94.1%
- viability, T/C [3]: 113%
- viability, T/C [4]: 95.9%
- viability, T/C [5]: 100%
- viability, T/C [6]: 76.2%
- viability, T/C [7]: 95.7%
- viability, T/C [8]: 91.3%
- viability, T/C [9]: 83.5%
- viability, T/C [10]: 109%
- viability, T/C [11]: 82.8%
- viability, T/C [12]: 94.6%
- viability, T/C [13]: 77.2%
- viability, T/C [14]: 100%
- viability, T/C [15]: 92.1%
- viability, T/C [16]: 92.8%
- viability, T/C [17]: 93%
- viability, T/C [18]: 114%
- viability, T/C [19]: 86%
- viability, T/C [20]: 88.3%
- viability, T/C [21]: 94.6%
- viability, T/C [22]: 109%
- viability, T/C [23]: 86.2%
- viability, T/C [24]: 89.6%
- viability, T/C [25]: 78%
- viability, T/C [26]: 73%
- viability, T/C [27]: 66.8%
- viability, T/C [28]: 65.7%
- viability, T/C [29]: 75.5%
- viability, T/C [30]: 79.3%
- viability, T/C [31]: 47%
- viability, T/C [32]: 56.4%
- viability, T/C [33]: 66.4%
- viability, T/C [34]: 43.6%
- viability, T/C [35]: 36.8%
- viability, T/C [36]: 35%

Structure (SMILES): Cn1ncnc1[C@H]1c2n[nH]c(=O)c3cc(F)cc(c23)N[C@@H]1c1ccc(F)cc1 + Cc1[nH]c2ccc(F)cc2c1-c1nc2c3cccnc3c3ncccc3c2[nH]1
- IC50 (second compound 0.0316 µM): > 316 nM
- IC50 (second compound 0.1 µM): > 316 nM
- IC50 (second compound 0.316 µM): > 316 nM
- IC50 (second compound 1 µM): > 316 nM
- IC50 (second compound 3.16 µM): > 316 nM
- IC50 (second compound 10 µM): > 316 nM
- viability, T/C [37]: 95.8%
- viability, T/C [38]: 80.1%
- viability, T/C [39]: 96.7%
- viability, T/C [1]: 88.1%
- viability, T/C [40]: 109%
- viability, T/C [3]: 90.2%
- viability, T/C [41]: 91.8%
- viability, T/C [42]: 87.3%
- viability, T/C [43]: 101%
- viability, T/C [7]: 85.3%
- viability, T/C [44]: 93.2%
- viability, T/C [9]: 97.9%
- viability, T/C [45]: 95.1%
- viability, T/C [46]: 104%
- viability, T/C [47]: 81.1%
- viability, T/C [13]: 110%
- viability, T/C [48]: 90.5%
- viability, T/C [15]: 106%
- viability, T/C [49]: 79.3%
- viability, T/C [50]: 87.7%
- viability, T/C [51]: 80.7%
- viability, T/C [19]: 89.2%
- viability, T/C [52]: 111%
- viability, T/C [21]: 86%
- viability, T/C [53]: 67.7%
- viability, T/C [54]: 65.8%
- viability, T/C [55]: 71.8%
- viability, T/C [25]: 66.4%
- viability, T/C [56]: 86.8%
- viability, T/C [27]: 70.3%
- viability, T/C [57]: 48.9%
- viability, T/C [58]: 51.7%
- viability, T/C [59]: 57.2%
- viability, T/C [31]: 45%
- viability, T/C [60]: 41.1%
- viability, T/C [33]: 57.4%
